US8835629B2, “Anti-cancer agents” (The Walter and Eliza Hall Institute of Medical Research, priority 2010, dated 2014)
Each block holds one molecule with its values, some of them ahead of it.

Legend:
[1] = system: LIM2537 human colon carcinoma cell line; assay: MTS assay using LIM2537 human colon carcinoma cell line; format: cell-based; conditions: 96 h, LIM2537, 4 days incubation, read-out: IC50 Range
Description: • Cells plated at […] in 100 μl medium+5% FCS (+Adds^1): • Cells incubated overnight: • Titrate inhibitors in a fresh plate in 150 μl medium • Transfer 100 μl titrated compounds to matching wells of the cell plate. • Incubate a further 4 days: • Add 10 μl MTS^2 or MTT^3 for 1.5 to 2 hours and read on Multiscanner (wavelengths 492/690) ^1 Additives for culture of LIM cell lines: 10 μM thioglycerol, 0.025 U/ml insulin, 1 μg/ml hydrocortisone. ^2 3-(4,5-dimethylthiazol-2-yl)-5-(3-carboxymethoxyphenyl)-2-(4-sulfophenyl)-2H-tetrazolium. ^3 3-(4,5-Dimethylthiazol-2-yl)-2,5-diphenyltetrazolium bromide
• LIM2537 human colon carcinoma cell line, grown in RPMI+Adds^1+5% FCS
Cells are trypsinized and washed ×2 in medium+5% FCS and plate out at 10^4 cells per well in 100 μl.
Incubate plates o/n 37° C.+5%-10% CO2 incubator.
Inhibitors are dissolved in DMSO to make 10 mM stocks and titrated in a 96 well plate in duplicate to use as the stock for the test plate. Titration range from 40 μM down to […] in ½ dilutions and 100 μl of each dilution transferred to the appropriate wells of the test plate that contains the cells (also in 100 μl) which results in the final concentration of the inhibitors being 20 μM down to 0.01 μM across the rows in duplicate. Three inhibitors are tested per plate (Rows A-F).
Each plate has the following: • Rows A,B: Inhibitor 1 dilutions, 200 μl per well • Rows C,D: Inhibitor 2 dilutions, 200 μl per well • Rows E,F: Inhibitor 3 dilutions, 200 μl per well • Control row G1-6: Medium+5% FCS (for maximum growth) • Control row G7-12: Taxol (250 nM for maximal inhibition) • Control row H: Remove medium from cells and replace with 200 μl Serum Free medium for serum free growth rate.
Incubate plates for 4 days in incubator. Process with MTS or MTT as outlined below.
To each well add 10 μl MTS (Sigma) solution. Incubate MTS for 1.5 to 2 hours and MTT for 4 hours. Stop reaction by adding 10 μl 10% SDS to each well. Read on Multiscan (492/690) plate reader, plot colour change versus concentration of inhibitor to establish the IC50.

SW480 = assay: Antimitotic effects (G2/M cell cycle block, DNA staining, ModFit) on SW480; format: cell-based, human; conditions: for % of Taxol (proportion of cells in G2M test/proportion of cells in G2M Taxol): 24 hrs, standard 1 μM Taxol; for IC50: Homo sapiens, inhibitors added to cells in log-growth for 24 hrs, read-out: IC50 for progression through the cell cycle
Source text: (§1) For the initial studies two colon carcinoma cell lines (LIM1215 and SW480) and two breast cancer cell lines (MDA-MB-231 and MCF-7) were used. Taxol was used as comparator in these experiments (Table 1).

MCF-7 = assay: Antimitotic effects (G2/M cell cycle block, DNA staining, ModFit) on MCF-7; format: cell-based, human; conditions: for % of Taxol (proportion of cells in G2M test/proportion of cells in G2M Taxol): 24 hrs, standard 1 μM Taxol; for IC50: Homo sapiens, MCF7, inhibitors added to cells in log-growth for 24 hrs, read-out: IC50 for progression through the cell cycle
Source text: as §1

tubulin = assay: Tubulin polymerization in intact cells (soluble vs polymerized tubulin, immunoblot); format: cell-based; conditions: LIM 1215 cells, NP-40 lysis, immunoblot with β-tubulin antibodies
Description: Equal volumes of supernatant and resuspended insoluble material were analyzed by SDS/PAGE and immunoblotting with antibodies to β-tubulin. S=soluble and P=polymerized tubulin. […] To monitor the effects of triazines on tubulin, the present inventors tested tubulin polymerization in intact cells following exposure to the drug. Cells treated with Taxol or with compound 3 were lysed in hypotonic buffer containing 0.5% NP-40 and the cellular extracts were centrifuged at high speed. Polymerized tubulin is detergent-insoluble: thus after this treatment soluble tubulin is recovered in the supernatants (S), and polymerized tubulin in the cellular pellets (P). The relative proportion of the two forms was monitored by SDS/PAGE and immunoblotting with tubulin-specific antibodies.

MDA-MB-231 = assay: Antimitotic effects (G2/M cell cycle block, DNA staining, ModFit) on MDA-MB-231; format: cell-based, human; conditions: for % of Taxol (proportion of cells in G2M test/proportion of cells in G2M Taxol): 24 hrs, standard 1 μM Taxol; for IC50: Homo sapiens, inhibitors added to cells in log-growth for 24 hrs, read-out: IC50 for progression through the cell cycle
Source text: as §1

LIM1215 = assay: Antimitotic effects (G2/M cell cycle block, DNA staining, ModFit) on LIM1215; format: cell-based, human; conditions: for % of Taxol (proportion of cells in G2M test/proportion of cells in G2M Taxol): 24 hrs, standard 1 μM Taxol; for IC50: Homo sapiens, inhibitors added to cells in log-growth for 24 hrs, read-out: IC50 for progression through the cell cycle
Source text: as §1

[2] = Dose escalation in mice (tolerability and toxicity); format: in vivo; conditions: C57Bl/6 mice, subcutaneous in DMSO, sacrificed 24 hrs post-injection
Description: Compound 1 was initially tested for tolerability and toxicity in mice. C57Bl/6 mice (aged 8-12 weeks) were injected subcutaneously with escalating doses of Compound 1 in a constant volume of DMSO. Mice were sacrificed 24 hrs post-injection. There were no adverse effects of doses up to 80 mg/kg within this time-frame. Thus the compound is well tolerated at doses that far exceed the IC50 observed “in vitro”.
These minor skin lesions healed readily within 2-3 days.

SMILES: COc1ccc(CNc2nc(NCc3cccc(N4CCOCC4)c3)nc(NN3CC(=O)NC3=O)n2)cc1 [Compound 21, 1-((4-((4-methoxybenzyl)amino)-6-((3-morpholinobenzyl)amino)-1,3,5-triazin-2-yl)amino)imidazolidine-2,4-dione]
IC50 [1]: 1000 to 10000 nM

SMILES: COc1ccc(CNc2nc(NCc3ccc(CN4CCCCC4)cc3)nc(NN3CC(=O)NC3=O)n2)cc1 [Compound 13, 1-((4-((4-methoxybenzyl)amino)-6-((4-(piperidin-1-ylmethyl)benzyl)amino)-1,3,5-triazin-2-yl)amino)imidazolidine-2,4-dione]
IC50 [1]: 100 to 1000 nM

SMILES: COc1ccc(CNc2nc(NCc3ccc(CN4CCN(C)CC4)cc3)nc(NN3CC(=O)NC3=O)n2)cc1 [Compound 16, 1-((4-((4-methoxybenzyl)amino)-6-((4-((4-methylpiperazin-1-yl)methyl)benzyl)amino)-1,3,5-triazin-2-yl)amino)imidazolidine-2,4-dione]
IC50 [1]: ≤ 100 nM

SMILES: COc1ccc(CNc2nc(NCc3ccc(OC)cc3)nc(NN3CC(=O)NC3=O)n2)cc1 [Compound 1, 1-[4,6-Bis-(4-methoxybenzylamino)-{1,3,5}-triazin-2-yl-amino]-imidazolidine-2,4-dione]
% of Taxol (proportion of cells in G2M test/proportion of cells in G2M Taxol) (SW480): 120%
IC50 (SW480): 50 nM
% of Taxol (proportion of cells in G2M test/proportion of cells in G2M Taxol) (MCF-7): 108%
IC50 (MCF-7): 9 nM
Doses with no adverse effects [2]: up to 80 mg/kg
% of Taxol (proportion of cells in G2M test/proportion of cells in G2M Taxol) (MDA-MB-231): 94%
IC50 (MDA-MB-231): 13 nM
% of Taxol (proportion of cells in G2M test/proportion of cells in G2M Taxol) (LIM1215): 105%
IC50 (LIM1215): 70 nM

SMILES: COc1ccc(CNc2nc(NCc3ccc(N4CCN(C)CC4)cc3)nc(NN3CC(=O)NC3=O)n2)cc1 [Compound 19, 1-((4-((4-methoxybenzyl)amino)-6-((4-(4-methylpiperazin-1-yl)benzyl)amino)-1,3,5-triazin-2-yl)amino)imidazolidine-2,4-dione]
IC50 [1]: 100 to 1000 nM

SMILES: COc1ccc(CNc2nc(NCc3ccc(N4CCOCC4)cc3)nc(NN3CC(=O)NC3=O)n2)cc1 [Compound 18, 1-((4-((4-methoxybenzyl)amino)-6-((4-morpholinobenzyl)amino)-1,3,5-triazin-2-yl)amino)imidazolidine-2,4-dione]
IC50 [1]: 100 to 1000 nM

SMILES: COc1ccc(CNc2nc(NCc3ccc(OC)cc3)nc(NC3NC(=O)N(C)C3=O)n2)cc1 (centres unmarked) [Compound 3, 5-[4,6-Bis-(4-methoxy-benzylamino)-[1,3,5]-triazin-2-ylamino]-3-methyl-imidazolidine-2,4-dione]
% of Taxol (proportion of cells in G2M test/proportion of cells in G2M Taxol) (SW480): 106%
IC50 (SW480): 1450 nM
% of Taxol (proportion of cells in G2M test/proportion of cells in G2M Taxol) (MCF-7): 102%
IC50 (MCF-7): 450 nM
% of Taxol (proportion of cells in G2M test/proportion of cells in G2M Taxol) (MDA-MB-231): 93%
IC50 (MDA-MB-231): 3000 nM
% of Taxol (proportion of cells in G2M test/proportion of cells in G2M Taxol) (LIM1215): 108%
IC50 (LIM1215): 3000 nM

Further lines, with some results ahead:

IC50 [1]: 100 to 1000 nM
SMILES: COc1ccc(CNc2nc(NCc3ccc(OCCN4CCOCC4)cc3)nc(NN3CC(=O)NC3=O)n2)cc1 [Compound 24, 1-((4-((4-methoxybenzyl)amino)-6-((4-(2-morpholinoethoxy)benzyl)amino)-1,3,5-triazin-2-yl)amino)imidazolidine-2,4-dione]

IC50 (SW480): 8 nM
IC50 (MCF-7): 8 nM
IC50 (MDA-MB-231): 8 nM
SMILES: CC(=O)O[C@H]1C(=O)[C@@]2(C)[C@H]([C@H](OC(=O)c3ccccc3)[C@]3(O)C[C@H](OC(=O)[C@H](O)[C@@H](NC(=O)c4ccccc4)c4ccccc4)C(C)=C1C3(C)C)[C@]1(OC(C)=O)CO[C@@H]1C[C@@H]2O [Taxol, reference compound]
% of Taxol (proportion of cells in G2M test/proportion of cells in G2M Taxol) (SW480): 100%
% of Taxol (proportion of cells in G2M test/proportion of cells in G2M Taxol) (MCF-7): 100%
Stabilization of tubulin in treated cells (soluble vs polymerized) (tubulin): strongly stabilized tubulin in a dose-dependent manner
% of Taxol (proportion of cells in G2M test/proportion of cells in G2M Taxol) (MDA-MB-231): 100%
% of Taxol (proportion of cells in G2M test/proportion of cells in G2M Taxol) (LIM1215): 100%
IC50 (LIM1215): 10 nM

IC50 [1]: 1000 to 10000 nM
SMILES: CCN(CC)Cc1ccc(CNc2nc(NCc3ccc(OC)cc3)nc(NN3CC(=O)NC3=O)n2)cc1 [Compound 15, 1-((4-((4-((diethylamino)methyl)benzyl)amino)-6-((4-methoxybenzyl)amino)-1,3,5-triazin-2-yl)amino)imidazolidine-2,4-dione]

IC50 [1]: > 10000 nM
SMILES: COc1ccc(CNc2nc(NCc3cccc(N4CCN(C)CC4)c3)nc(NN3CC(=O)NC3=O)n2)cc1 [Compound 22, 1-((4-((4-methoxybenzyl)amino)-6-((3-(4-methylpiperazin-1-yl)benzyl)amino)-1,3,5-triazin-2-yl)amino)imidazolidine-2,4-dione]

IC50 [1]: 100 to 1000 nM
SMILES: COc1ccc(CNc2nc(NCc3cccc(N4CCCCC4)c3)nc(NN3CC(=O)NC3=O)n2)cc1 [Compound 20, 1-((4-((4-methoxybenzyl)amino)-6-((3-(piperidin-1-yl)benzyl)amino)-1,3,5-triazin-2-yl)amino)imidazolidine-2,4-dione]

IC50 [1]: > 10000 nM
SMILES: COc1ccc(CNc2nc(NCc3ccc(CN4CCOCC4)cc3)nc(NN3CC(=O)NC3=O)n2)cc1 [Compound 14, 1-((4-((4-methoxybenzyl)amino)-6-((4-(morpholinomethyl)benzyl)amino)-1,3,5-triazin-2-yl)amino)imidazolidine-2,4-dione]

IC50 [1]: ≤ 100 nM
SMILES: COc1ccc(CNc2nc(NCc3ccc(N4CCCCC4)cc3)nc(NN3CC(=O)NC3=O)n2)cc1 [Compound 17, 1-((4-((4-methoxybenzyl)amino)-6-((4-(piperidin-1-yl)benzyl)amino)-1,3,5-triazin-2-yl)amino)imidazolidine-2,4-dione]

IC50 [1]: 1000 to 10000 nM
SMILES: CCN(CC)CCOc1ccc(CNc2nc(NCc3ccc(OC)cc3)nc(NN3CC(=O)NC3=O)n2)cc1 [Compound 23, 1-((4-((4-(2-(diethylamino)ethoxy)benzyl)amino)-6-((4-methoxybenzyl)amino)-1,3,5-triazin-2-yl)amino)imidazolidine-2,4-dione]
